Each structure is given as a SMILES string. Read-outs that look alike come from different tables or passages of the source. Bounds are passed on as bounds.

The test system of one assay is HCT116 cells. The assay can be described thus: HCT116 (MSI) 7 day viability, CellTiter Glo. The assay is classed as cell-based. The conditions noted are these: 7 days, read-out: HCT116 (MSI) Viability 7 Day Abs AC50. In outline:
(§1)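 HCT116 seeded at 50 cells/well and HT29 at 500 cells/well onto compound plates (10-point 3-fold dilutions from 10 mM DMSO stock), incubated 7 days at 37 °C, 5% CO2.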
A general note: ATP-based viability assays read luminescence as a measure of living cells.

Assay [1] concerns the target Full length WRN protein (aa 2-1432) (Homo sapiens (Human), UniProt Q14191). The assay can be described thus: WRN ATPase ADP-Glo biochemical assay, Assay Format B (100 μM ATP). Conditions: 0.25 nM WRN, 100 nM C6.18 ssDNA, 60 min preincubation. (ADP-Glo first removes unused ATP, then detects ADP through luciferase.)
In a further assay the test system is HT29 cells. The assay can be described thus: HT29 (MSS) 7 day viability, CellTiter Glo. Format: cell-based. The conditions noted are these: 7 days, read-out: HT29 (MSS) Viability 7 Day CTGAbs AC50. In outline:
as §1

[2] abbreviates: read-out: ATPase ADPGlo AC50 (uM)- Assay Format B.

Chain of Full length WRN protein (aa 2-1432) (Q14191 2-1432): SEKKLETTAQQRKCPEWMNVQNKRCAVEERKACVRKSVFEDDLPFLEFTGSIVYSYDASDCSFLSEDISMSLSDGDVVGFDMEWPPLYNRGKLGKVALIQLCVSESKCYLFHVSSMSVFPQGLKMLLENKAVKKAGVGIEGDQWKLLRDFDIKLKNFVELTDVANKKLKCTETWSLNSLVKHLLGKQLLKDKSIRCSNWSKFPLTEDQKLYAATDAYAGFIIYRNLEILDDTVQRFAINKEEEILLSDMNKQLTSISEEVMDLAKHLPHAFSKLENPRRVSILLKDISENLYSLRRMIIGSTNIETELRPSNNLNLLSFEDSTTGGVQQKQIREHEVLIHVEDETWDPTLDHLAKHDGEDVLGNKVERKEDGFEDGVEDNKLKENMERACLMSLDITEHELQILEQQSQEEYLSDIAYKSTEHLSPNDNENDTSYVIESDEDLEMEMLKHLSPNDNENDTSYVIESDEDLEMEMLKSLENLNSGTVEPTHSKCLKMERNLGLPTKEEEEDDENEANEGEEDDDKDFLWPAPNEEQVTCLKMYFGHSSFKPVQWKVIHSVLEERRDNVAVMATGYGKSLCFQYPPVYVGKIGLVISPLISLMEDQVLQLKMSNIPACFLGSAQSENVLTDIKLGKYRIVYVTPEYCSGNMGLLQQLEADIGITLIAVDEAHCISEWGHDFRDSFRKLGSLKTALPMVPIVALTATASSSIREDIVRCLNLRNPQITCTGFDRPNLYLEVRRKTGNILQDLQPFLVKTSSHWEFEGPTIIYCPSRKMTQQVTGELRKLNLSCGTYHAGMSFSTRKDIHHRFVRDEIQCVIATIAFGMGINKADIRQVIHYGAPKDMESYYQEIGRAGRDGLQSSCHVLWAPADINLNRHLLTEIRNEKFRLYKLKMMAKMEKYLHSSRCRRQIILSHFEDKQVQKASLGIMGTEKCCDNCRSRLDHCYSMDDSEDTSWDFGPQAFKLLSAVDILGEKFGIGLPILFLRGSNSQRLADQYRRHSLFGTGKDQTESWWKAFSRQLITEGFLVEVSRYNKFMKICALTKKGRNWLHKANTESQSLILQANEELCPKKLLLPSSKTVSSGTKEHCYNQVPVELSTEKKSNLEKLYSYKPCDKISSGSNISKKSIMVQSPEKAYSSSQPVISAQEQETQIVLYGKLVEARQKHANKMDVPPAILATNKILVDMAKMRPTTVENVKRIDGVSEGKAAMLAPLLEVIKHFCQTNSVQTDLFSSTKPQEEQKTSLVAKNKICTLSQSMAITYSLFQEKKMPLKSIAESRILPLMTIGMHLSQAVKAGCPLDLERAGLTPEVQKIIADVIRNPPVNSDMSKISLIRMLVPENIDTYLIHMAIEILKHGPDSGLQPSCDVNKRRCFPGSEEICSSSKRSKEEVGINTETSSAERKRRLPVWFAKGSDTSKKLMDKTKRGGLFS

Take `C=CC(=O)N1CCc2nn(-c3ccc(C4CC4)cc3O)c3c2C(C1)N(C(=O)c1cnc(C(F)(F)F)c(OC)c1N)CC3` (stereo not drawn) [Compound 216, 1-(5-(4-amino-5-methoxy-6-(trifluoromethyl)nicotinoyl)-2-(4-cyclopropyl-2-hydroxyphenyl)-2,3,4,5,5a,6,8,9-octahydro-7H-1,2,5,7-tetraazabenzo[cd]azulen-7-yl)prop-2-en-1-one]: the concentration at half-maximal activity (AC50) (in general, the concentration giving half of the maximal activity seen) in the assay with HCT116 cells is 1 to 100 nM; in assay [1] (setting [2]) it was 0.0015 to 0.005 µM; in the assay with HT29 cells, over 3000 nM.
Turning to `C=CC(=O)N1CCc2nn(-c3ccc(C4CC4)cc3O)c3c2C(C1)N(C(=O)c1cnc(Br)cc1N)CC3` (stereo not drawn) [Compound 191, 1-(5-(4-amino-6-bromonicotinoyl)-2-(4-cyclopropyl-2-hydroxyphenyl)-2,3,4,5,5a,6,8,9-octahydro-7H-1,2,5,7-tetraazabenzo[cd]azulen-7-yl)prop-2-en-1-one], the AC50 is 1 to 100 nM with HCT116 cells (Homo sapiens, HCT-116, 168 h); 0.005 to 0.015 µM in assay [1] (setting [2]); over 3000 nM in the assay with HT29 cells (Homo sapiens, HT-29, 168 h).
On the same counts, the results for `C=CC(=O)N1CC2c3c(nn(-c4ccc(C5CC5)cc4)c3CCN2C(=O)c2ccc(C(F)(F)F)cc2)C(n2ccccc2=O)C1` (stereo not drawn) [Compound 231, 1-(7-acryloyl-2-(4-cyclopropylphenyl)-5-(4-(trifluoromethyl)benzoyl)-3,4,5,5a,6,7,8,9-octahydro-2H-1,2,5,7-tetraazabenzo[cd]azulen-9-yl)pyridin-2(1H)-one] are 1 to 100 nM, 0.015 to 0.055 µM and over 3000 nM.
On the same counts, the results for `C=CC(=O)N1CC(OCc2cnc3sccn23)c2nn(-c3ccc(C4CC4)cc3)c3c2C(C1)N(C(=O)c1ccc(C(F)(F)F)nc1)CC3` (stereo not drawn) [Compound 234, 1-(2-(4-cyclopropylphenyl)-9-(imidazo[2,1-b]thiazol-5-ylmethoxy)-5-(6-(trifluoromethyl)nicotinoyl)-2,3,4,5,5a,6,8,9-octahydro-7H-1,2,5,7-tetraazabenzo[cd]azulen-7-yl)prop-2-en-1-one] are 1 to 100 nM, 0.015 to 0.055 µM and over 3000 nM.
Turning to `C=CC(=O)N1CC(OC2(COC)CC2)c2nn(-c3ccc(C4CC4)cc3)c3c2C(C1)N(C(=O)c1ccc(C(F)(F)F)nc1)CC3` (stereo not drawn) [Compound 235, 1-(2-(4-cyclopropylphenyl)-9-(1-(methoxymethyl)cyclopropoxy)-5-(6-(trifluoromethyl)nicotinoyl)-2,3,4,5,5a,6,8,9-octahydro-7H-1,2,5,7-tetraazabenzo[cd]azulen-7-yl)prop-2-en-1-one], the concentration at half-maximal activity (AC50) with HCT116 cells (Homo sapiens, HCT-116, 168 h) is 100 to 250 nM; in assay [1] (setting [2]), over 0.055 µM; in the assay with HT29 cells (Homo sapiens, HT-29, 168 h), over 3000 nM.
On the same counts, the results for `C=CC(=O)N1CCc2nn(-c3ccc(C4CC4)cc3O)c3c2C(C1)N(C(=O)c1cnc(SC)cc1N)CC3` (stereo not drawn) [Compound 211, 1-(5-(4-amino-6-(methylthio)nicotinoyl)-2-(4-cyclopropyl-2-hydroxyphenyl)-2,3,4,5,5a,6,8,9-octahydro-7H-1,2,5,7-tetraazabenzo[cd]azulen-7-yl)prop-2-en-1-one] are 1 to 100 nM, 0.0015 to 0.005 µM and over 3000 nM.
For `C=CC(=O)N1CC(OC2CC(C#N)C2)c2nn(-c3ccc(C4CC4)cc3O)c3c2C(C1)N(C(=O)c1cnc(C(F)(F)F)cc1N)CC3` (stereo not drawn) [Compound 222, 3-((7-acryloyl-5-(4-amino-6-(trifluoromethyl)nicotinoyl)-2-(4-cyclopropyl-2-hydroxyphenyl)-3,4,5,5a,6,7,8,9-octahydro-2H-1,2,5,7-tetraazabenzo[cd]azulen-9-yl)oxy)cyclobutane-1-carbonitrile], in that order: 1 to 100 nM, 0.0015 to 0.005 µM and over 3000 nM.
Consider `C=CC(=O)N1CCc2nn(-c3ccc(C4CC4)cc3O)c3c2C(C1)N(C(=O)c1cnc(Cl)c(F)c1N)CC3` (stereo not drawn) [Compound 210, 1-(5-(4-amino-6-chloro-5-fluoronicotinoyl)-2-(4-cyclopropyl-2-hydroxyphenyl)-2,3,4,5,5a,6,8,9-octahydro-7H-1,2,5,7-tetraazabenzo[cd]azulen-7-yl)prop-2-en-1-one], for which the AC50 in the assay on HCT116 cells (Homo sapiens, HCT-116, 168 h) was 1 to 100 nM; in assay [1] (setting [2]), 0.0015 to 0.005 µM; in the assay with HT29 cells (Homo sapiens, HT-29, 168 h) it was over 3000 nM.
On the same counts, the results for `C=CC(=O)N1CCc2nn(-c3ccc(C4CCC4)cc3O)c3c2C(C1)N(C(=O)c1cc(F)c(C(F)(F)F)nc1N)CC3` (stereo not drawn) [Compound 165, 1-(5-(2-amino-5-fluoro-6-(trifluoromethyl)nicotinoyl)-2-(4-cyclobutyl-2-hydroxyphenyl)-2,3,4,5,5a,6,8,9-octahydro-7H-1,2,5,7-tetraazabenzo[cd]azulen-7-yl)prop-2-en-1-one] are 1 to 100 nM, 0.015 to 0.055 µM and over 3000 nM.
For `C=CC(=O)N1CCc2nn(-c3ccc(C4CC4)cc3)c3c2C(C1)N(C(=O)c1c(N)cc(Br)c2[nH]cnc12)CC3` (stereo not drawn) [Compound 188, 1-(5-(5-amino-7-bromo-1H-benzo[d]imidazole-4-carbonyl)-2-(4-cyclopropylphenyl)-2,3,4,5,5a,6,8,9-octahydro-7H-1,2,5,7-tetraazabenzo[cd]azulen-7-yl)prop-2-en-1-one], in that order: 1 to 100 nM, 0.0015 to 0.005 µM and over 3000 nM.
On the same counts, the results for `C=CC(=O)N1CCc2nn(-c3ccc(C4CC4)cc3O)c3c2C(C1)N(C(=O)c1ccc(C(F)(F)F)nc1)CC3` (stereo not drawn) [Compound 213, 1-(2-(4-cyclopropyl-2-hydroxyphenyl)-5-(6-(trifluoromethyl)nicotinoyl)-2,3,4,5,5a,6,8,9-octahydro-7H-1,2,5,7-tetraazabenzo[cd]azulen-7-yl)prop-2-en-1-one] are 1 to 100 nM, 0.005 to 0.015 µM and over 3000 nM.
As for `C=CC(=O)N1CCc2nn(-c3ccc(C4CC4)cc3CO)c3c2C(C1)N(C(=O)c1cnc(C(F)(F)F)cc1N)CC3` (stereo not drawn) [Compound 225, 1-(5-(4-amino-6-(trifluoromethyl)nicotinoyl)-2-(4-cyclopropyl-2-(hydroxymethyl)phenyl)-2,3,4,5,5a,6,8,9-octahydro-7H-1,2,5,7-tetraazabenzo[cd]azulen-7-yl)prop-2-en-1-one], the concentration at half-maximal activity (AC50) in the assay with HCT116 cells (Homo sapiens, HCT-116, 168 h) was 100 to 250 nM; in assay [1] (setting [2]) it was 0.015 to 0.055 µM; in the assay on HT29 cells (Homo sapiens, HT-29, 168 h), over 3000 nM.
On the same counts, the results for `C=CC(=O)N1CCc2nn(-c3ccc(C4CC4)cc3O)c3c2C(C1)N(C(=O)c1c(N)cc(Br)c2nc[nH]c12)CC3` (stereo not drawn) [Compound 212, 1-(5-(6-amino-4-bromo-1H-benzo[d]imidazole-7-carbonyl)-2-(4-cyclopropyl-2-hydroxyphenyl)-2,3,4,5,5a,6,8,9-octahydro-7H-1,2,5,7-tetraazabenzo[cd]azulen-7-yl)prop-2-en-1-one] are 1 to 100 nM, 0.0015 to 0.005 µM and over 3000 nM.
For `C=CC(=O)N1CCc2nn(-c3cc(F)c(C4CC4)cc3O)c3c2C(C1)N(C(=O)c1cnc(OC(F)(F)F)c(F)c1N)CC3` (stereo not drawn) [Compound 254, 1-(5-(4-amino-5-fluoro-6-(trifluoromethoxy)nicotinoyl)-2-(4-cyclopropyl-5-fluoro-2-hydroxyphenyl)-2,3,4,5,5a,6,8,9-octahydro-7H-1,2,5,7-tetraazabenzo[cd]azulen-7-yl)prop-2-en-1-one], the AC50 in the assay on HCT116 cells (Homo sapiens, HCT-116, 168 h) was 1 to 100 nM; in assay [1] (ATPase ADPGlo AC50 (uM)- Assay Format B) it was 0.015 to 0.055 µM; in the assay with HT29 cells (Homo sapiens, HT-29, 168 h), over 3000 nM.
As for `C=CC(=O)N1CCc2nn(-c3ccc(C4CC4)cc3O)c3c2C(C1)N(C(=O)c1nnc(Br)cc1N)CC3` (stereo not drawn) [Compound 228, 1-(5-(4-amino-6-bromopyridazine-3-carbonyl)-2-(4-cyclopropyl-2-hydroxyphenyl)-2,3,4,5,5a,6,8,9-octahydro-7H-1,2,5,7-tetraazabenzo[cd]azulen-7-yl)prop-2-en-1-one], the AC50 with HCT116 cells (Homo sapiens, HCT-116, 168 h) was 1 to 100 nM; in assay [1] (setting [2]) it was 0.0015 to 0.005 µM; with HT29 cells (Homo sapiens, HT-29, 168 h), over 3000 nM.
For `C=CC(=O)N1CCc2nn(-c3ccc(C(C)C)cc3O)c3c2C(C1)N(C(=O)c1cnc(C(F)(F)F)c2[nH]ncc12)CC3` (stereo not drawn) [Compound 176, 1-(2-(2-hydroxy-4-isopropylphenyl)-5-(7-(trifluoromethyl)-1H-pyrazolo[3,4-c]pyridine-4-carbonyl)-2,3,4,5,5a,6,8,9-octahydro-7H-1,2,5,7-tetraazabenzo[cd]azulen-7-yl)prop-2-en-1-one], the AC50 was 1 to 100 nM in the assay on HCT116 cells (Homo sapiens, HCT-116, 168 h); 0.0015 to 0.005 µM in assay [1] (setting [2]); over 3000 nM in the assay on HT29 cells (Homo sapiens, HT-29, 168 h).
On the same counts, the results for `C=CC(=O)N1CCc2nn(-c3ccc(C4CC4)c(F)c3O)c3c2C(C1)N(C(=O)c1cnc(C(F)(F)F)c(F)c1N)CC3` (stereo not drawn) [Compound 218, 1-(5-(4-amino-5-fluoro-6-(trifluoromethyl)nicotinoyl)-2-(4-cyclopropyl-3-fluoro-2-hydroxyphenyl)-2,3,4,5,5a,6,8,9-octahydro-7H-1,2,5,7-tetraazabenzo[cd]azulen-7-yl)prop-2-en-1-one] are 1 to 100 nM, 0.005 to 0.015 µM and over 3000 nM.
On the same counts, the results for `C=CC(=O)N1CCc2nn(-c3ccc(C4CCC4)cc3O)c3c2C(C1)N(C(=O)c1cnc(Cl)c(O)c1)CC3` (stereo not drawn) [Compound 140, 1-(5-(6-chloro-5-hydroxynicotinoyl)-2-(4-cyclobutyl-2-hydroxyphenyl)-2,3,4,5,5a,6,8,9-octahydro-7H-1,2,5,7-tetraazabenzo[cd]azulen-7-yl)prop-2-en-1-one] are 1 to 100 nM, 0.005 to 0.015 µM and over 3000 nM.

The values above are taken from patent publication US20250346600A1, “TRICYCLIC DERIVATIVES AND RELATED USES” (MOMA Therapeutics, Inc., priority 2023, published 2025).
